The numbers were not newly measured in US10960082B2, “Tridentate connexon and use thereof” (NEWBIO THERAPEUTICS, INC., priority 2013, dated 2021), which cites them from elsewhere.

Usually IC50 stands for the midpoint of a concentration-inhibition curve.

The data set concerns human carcinoma lines.

SMILES strings stand for the structures.

Take `COc1cccc2c1C(=O)c1c(O)c3c(c(O)c1C2=O)C[C@@](O)(C(=O)CO)C[C@@H]3O[C@H]1C[C@H](N)[C@H](O)[C@H](C)O1` [doxorubicin]: the IC50 is 0.1 to 0.2 µM.
